Values after ≈ are worked out from the molar mass of the structure shown. Like-named read-outs stand apart in the source and are kept apart here.
Tests used:
Mycoplasma gallisepticum = test: Treatment of Mycoplasma gallisepticum caused chronic respiratory disease in poultry; type: in vivo; details: for Final Mean Body Weight (g) of Survivors / Overall % Mortality / Overall Feed-to-Gain: 7 days pre- and 7 days postchallenge; for Final Mean Body Weight (g) of Survivors / Overall % Mortality / Overall Feed-to-Gain / Mean Air Sac Lesion Scores: M. gallisepticum challenged birds; for Mean Air Sac Lesion Scores: score 0-3
Description: This study is conducted to evaluate the efficacy of antibiotic LL-E19020α against Mycoplasma gallisepticum caused chronic respiratory disease in poultry. The antibiotic is fed continuously at 10 and 50 g/ton for 7 days pre- and 7 days postchallenge. Birds similarly fed a diet containing 100 g/ton chlortetracycline serve as a positive control group. Infected and noninfected, nonmedicated control groups are also included. After 7 days on respective treatment diets, birds are challenged with M. gallisepticum (MG) into the right and left post-thoracic air sacs. The air sacs are cultured for the presence of Mycoplasma from all birds dying postchallenge. The air sacs of all birds are scored based on gross lesions upon necropsy at death or at study end. Survivors at study end are bled prior to necropsy for Mycoplasma gallisepticum serology testing. Body weight and feed intake measurements are made at specified intervals during the study.

[1] = system: Mycoplasma gallisepticum "R"; test: Minimum inhibitory concentration assay for Mycoplasma gallisepticum (microdilution, Table VI); type: cell-based; details: Mycoplasmoides gallisepticum
Description: • 1. […] Both cultures are incubated at 37°C. […] Appropriate solvent controls are also included. • 4.

Escherichia coli = test: Minimum inhibitory concentration by agar dilution (Table V); type: cell-based; details: Escherichia coli (2 strains tested)
Treponema hyodysenteriae [2] = test: Minimum inhibitory concentration by microdilution (Table VI); type: cell-based
[3] = system: Clostridium perfringens ATCC 13124; type: cell-based; details: 18 hours incubation
[4] = system: Pasteurella haemolytica 30660; test: Pasteurella disk test (primary in vitro disk diffusion test); type: cell-based; details: disks soaked in 2.5 mg/ml solution of test compound, zones of inhibition
Description: (§1) Zones of inhibition are recorded.

[5] = system: Pasteurella multocida 31081B; test: as above; type: cell-based; details: disks soaked in 2.5 mg/ml solution of test compound, zones of inhibition
Description: as §1

[6] = system: Streptococcus pyogenes C203; test: In vivo antibacterial activity in infected mice (Table III); set-up: species or system female CD-1 mice; details: S. pyogenes C203, mice, 30 minutes before infection
Streptococcus pyogenes = test: Minimum inhibitory concentration by agar dilution (Table V); type: cell-based; details: Streptococcus pyogenes (2 strains tested)
[7] = system: Streptococcus sp. (β-hemolytic); test: In vitro antibacterial activity, standard agar dilution method (Table II); type: cell-based; details: 18 hours incubation
Description: (§2) The in vitro antibacterial activity of LL-E19020α and β was determined against a spectrum of gram-positive and gram-negative bacteria by a standard agar dilution method. Mueller-Hinton agar containing 5% sheep blood and two-fold decreasing concentrations of either LL-E19020α or β were poured into petri dishes. The agar surfaces were inoculated with 1 to 5x10⁴ colony forming units of bacteria by means of the Steers replicating device. The lowest concentration of antibiotic that inhibited growth of a bacterial strain after 18 hours incubation was recorded as the minimal inhibitory concentration for that strain.

[8] = system: Clostridium difficile ATCC 17858; test: as above; type: cell-based; details: 18 hours incubation
Description: as §2

Peptococcus magnus = test: as above; type: cell-based; details: 18 hours incubation
Description: as §2

Streptococcus pneumoniae = test: as above; type: cell-based; details: 18 hours incubation
Description: as §2

Streptococcus uberis = test: Minimum inhibitory concentration by agar dilution (Table V); type: cell-based; details: Streptococcus uberis (1 strain tested)
Salmonella choleraesuis = test: as above; type: cell-based; details: Salmonella choleraesuis (2 strains tested)
Streptococcus faecalis = test: as above; type: cell-based; details: Streptococcus faecalis (1 strain tested)
[9] = system: Bordetella bronchiseptica; test: as above; type: cell-based; details: Bordetella bronchiseptica (4 strains tested)
Treponema hyodysenteriae [10] = test: T. hyodysenteriae disk test (primary in vitro disk diffusion test); type: cell-based; details: disks soaked in 2.5 mg/ml solution, zones of inhibited hemolysis
[11] = system: Staphylococcus aureus Smith; test: In vivo antibacterial activity in infected mice (Table III); set-up: species or system female CD-1 mice; details: S. aureus Smith, 30 minutes before infection
[12] = system: Clostridium perfringens type C; type: in vivo, broiler chicks; details: infected chicks, treatment mean; for Lesion Scores: intestinal lesion score 0-4, day 19
Pasteurella haemolytica = test: Minimum inhibitory concentration by agar dilution (Table V); type: cell-based; details: Pasteurella haemolytica (3 strains tested)
Staphylococcus aureus = test: as above; type: cell-based; details: Staphylococcus aureus (7 strains tested)
Streptococcus agalactiae = test: as above; type: cell-based; details: Streptococcus agalactiae (4 strains tested)
[13] = 100 g/ton in feed (positive control)
[14] = Treponema hyodysenteriae B78 (ATCC 27164)
[15] = Treponema hyodysenteriae B204 (ATCC 31212)
[16] = 50 grams per ton of feed, Mycoplasma gallisepticum infected chicks
[17] = single subcutaneous dose 4 mg/kg
[18] = single subcutaneous dose 16 mg/kg
[19] = single subcutaneous dose 64 mg/kg

CN(C)[C@@H]1C(O)=C(C(N)=O)C(=O)[C@@]2(O)C(O)=C3C(=O)c4c(O)ccc(Cl)c4[C@@](C)(O)[C@H]3C[C@@H]12 [CTC, Chlortetracycline, reference compound]
Final Mean Body Weight (g) of Survivors (Mycoplasma gallisepticum; [13]): 398 g | Overall % Mortality (Mycoplasma gallisepticum; [13]): 25.0% | Overall Feed-to-Gain (Mycoplasma gallisepticum; [13]): 1.83 | Mean Air Sac Lesion Scores (Mycoplasma gallisepticum; [13]): 1.88 | MIC [1]: 0.5 µg/mL (≈ 1.04 µM)

C/C=C\C=C\[C@@H]1O[C@](O)([C@H](CO[C@H]2C[C@@H](OC)[C@@H](O[C@@H]3C[C@@H](OC)[C@@H](O[C@H]4C[C@H](OC)[C@H](O)[C@H](C)O4)[C@H](C)O3)[C@@H](C)O2)C(=O)NC/C=C/C=C(\C)[C@@H](OC)[C@H](C)[C@H]2C[C@H](O)[C@H](/C=C/C=C/C=C/C(=O)O)O2)[C@H](OC(=O)Cc2ccccc2)[C@H](O)C1(C)C [LL-E19020α]
MIC (Escherichia coli): ≧256 µg/ml | MIC (Treponema hyodysenteriae [2]; [14]): 1 µg/mL (≈ 0.815 µM) | MIC (Treponema hyodysenteriae [2]; [15]): 1 µg/mL (≈ 0.815 µM) | Minimal Inhibitory Concentration [3]: 16 µg/mL | Final Mean Body Weight (g) of Survivors (Mycoplasma gallisepticum; 10 g/ton in feed): 336 g | Overall % Mortality (Mycoplasma gallisepticum; 10 g/ton in feed): 41.3% | Overall Feed-to-Gain (Mycoplasma gallisepticum; 10 g/ton in feed): 1.88 | Mean Air Sac Lesion Scores (Mycoplasma gallisepticum; 10 g/ton in feed): 2.04 | Final Mean Body Weight (g) of Survivors (Mycoplasma gallisepticum; 50 g/ton in feed): 349 g | Overall % Mortality (Mycoplasma gallisepticum; 50 g/ton in feed): 36.3% | Overall Feed-to-Gain (Mycoplasma gallisepticum; 50 g/ton in feed): 1.84 | Mean Air Sac Lesion Scores (Mycoplasma gallisepticum; 50 g/ton in feed): 2.11 | feed to gain ratios compared with infected nonmedicated chicks (Mycoplasma gallisepticum; [16]): better feed to gain ratios | mortality compared with infected nonmedicated chicks (Mycoplasma gallisepticum; [16]): less mortality | weight gain compared with infected nonmedicated chicks (Mycoplasma gallisepticum; [16]): better weight gain | ZONE SIZE [4]: 13 mm | ZONE SIZE [5]: 15 mm | Survival Ratios 7 Days After Infection [6, 17]: 2/5 | Survival Ratios 7 Days After Infection ([6]; single subcutaneous dose 8 mg/kg): 4/5 | Survival Ratios 7 Days After Infection [6, 18]: 5/5 | Survival Ratios 7 Days After Infection ([6]; single subcutaneous dose 32 mg/kg): 5/5 | Survival Ratios 7 Days After Infection [6, 19]: 5/5 | MIC (Streptococcus pyogenes): 2 µg/mL (≈ 1.63 µM) | Minimal Inhibitory Concentration ([7]; Streptococcus sp. (β-hemolytic) C203): 0.5 µg/mL | Minimal Inhibitory Concentration ([7]; Streptococcus sp. (β-hemolytic) VGH-84-60): 0.25 µg/mL | Minimal Inhibitory Concentration ([7]; Streptococcus sp. (β-hemolytic) VGH-84-61): 1 µg/mL | Minimal Inhibitory Concentration ([7]; Streptococcus sp. (β-hemolytic) VGH-84-62): 1 µg/mL | Minimal Inhibitory Concentration ([7]; Streptococcus sp. (β-hemolytic) VGH-84-63): 0.12 µg/mL | Minimal Inhibitory Concentration ([7]; Streptococcus sp. (β-hemolytic) VGH-84-64): 0.12 µg/mL | Minimal Inhibitory Concentration [8]: 4 µg/mL | Minimal Inhibitory Concentration (Peptococcus magnus; Peptococcus magnus ATCC 14956): 0.12 µg/mL | Minimal Inhibitory Concentration (Peptococcus magnus; Peptococcus magnus ATCC 29328): 0.12 µg/mL | Minimal Inhibitory Concentration (Streptococcus pneumoniae; Streptococcus pneumoniae SVI): 1 µg/mL | Minimal Inhibitory Concentration (Streptococcus pneumoniae; Streptococcus pneumoniae VGH-84-56): 1 µg/mL | Minimal Inhibitory Concentration (Streptococcus pneumoniae; Streptococcus pneumoniae VGH-84-57): 2 µg/mL | Minimal Inhibitory Concentration (Streptococcus pneumoniae; Streptococcus pneumoniae VGH-84-58): 0.25 µg/mL | Minimal Inhibitory Concentration (Streptococcus pneumoniae; Streptococcus pneumoniae VGH-84-59): 0.25 µg/mL | MIC (Streptococcus uberis): 8 µg/mL (≈ 6.52 µM) | MIC (Salmonella choleraesuis): >256 µg/mL | MIC (Streptococcus faecalis): 8 µg/mL (≈ 6.52 µM) | MIC [9]: >256 µg/mL | ZONE SIZE (Treponema hyodysenteriae [10]; [14]): 0 mm | ZONE SIZE (Treponema hyodysenteriae [10]; [15]): 15 mm | Survival Ratios 7 Days After Infection [11, 17]: 2/5 | Survival Ratios 7 Days After Infection [11, 18]: 3/5 | Survival Ratios 7 Days After Infection [11, 19]: 3/5 | Survival Ratios 7 Days After Infection ([11]; single subcutaneous dose 256 mg/kg): 3/5 | % Mortality ([12]; 5 ppm): 2.5% | Feed/Gain ([12]; 5 ppm): 1.97 | Final Weight ([12]; 5 ppm): 639.2 | Lesion Scores ([12]; 5 ppm): 0.35 | % Mortality ([12]; 50 ppm): 2.5% | Feed/Gain ([12]; 50 ppm): 1.80 | Final Weight ([12]; 50 ppm): 699.4 | Lesion Scores ([12]; 50 ppm): 0.38 | MIC (Pasteurella haemolytica): 16 µg/mL (≈ 13 µM) | MIC (Staphylococcus aureus): ≧256 µg/ml | MIC (Streptococcus agalactiae): 2 to 8 µg/mL

Reference: patent EP0313846B1, “Method for controlling chronic respiratory disease, and necrotic enteritis in avian species” (AMERICAN CYANAMID COMPANY, priority 1987, dated 1989)
